Experimental data taken from patent US12252524B2, “GIP/GLP1 co-agonist compounds” (Eli Lilly and Company, priority 2018, dated 2025).
Numbered stars: 1 amine (or outer) side, 2 acyl side, 3 side chain; on linkers, the order of the positions; unused ones are H or OH. Square brackets hold non-standard residues; d marks the D form. Side chains are listed from the residue outwards. Peptide text beside a SMILES is read from it. * marks the point of attachment. C20 diacid = O=C(O)CCCCCCCCCCCCCCCCCCC(=O)*; C18 diacid = O=C(O)CCCCCCCCCCCCCCCCC(=O)*; γGlu = O=C(O)[C@H](CCC(=O)[*:2])N[*:1]; αMeY = C[C@](N)(Cc1ccc(O)cc1)C(=O)O; αMeL = CC(C)C[C@](C)(N)C(=O)O; Orn = NCCC[C@H](N)C(=O)O; AEEA = NCCOCCOCC(=O)O; Aib = CC(C)(N)C(=O)O

Legend:
[1] = molecular target: human GLP-1 receptor (GLP-1R) (Homo sapiens, UniProt P43220); assay: cAMP pharmacological functional assay in presence of casein, hGLP-1R; assay type: cell-based; settings: HEK293 cells expressing hGLP-1R, 0.1% Casein, geometric mean; read-out: hGLP1R cAMP Rel EC50 nM (SEM, n)
Chain of human GLP-1 receptor (GLP-1R) (P43220 24-463): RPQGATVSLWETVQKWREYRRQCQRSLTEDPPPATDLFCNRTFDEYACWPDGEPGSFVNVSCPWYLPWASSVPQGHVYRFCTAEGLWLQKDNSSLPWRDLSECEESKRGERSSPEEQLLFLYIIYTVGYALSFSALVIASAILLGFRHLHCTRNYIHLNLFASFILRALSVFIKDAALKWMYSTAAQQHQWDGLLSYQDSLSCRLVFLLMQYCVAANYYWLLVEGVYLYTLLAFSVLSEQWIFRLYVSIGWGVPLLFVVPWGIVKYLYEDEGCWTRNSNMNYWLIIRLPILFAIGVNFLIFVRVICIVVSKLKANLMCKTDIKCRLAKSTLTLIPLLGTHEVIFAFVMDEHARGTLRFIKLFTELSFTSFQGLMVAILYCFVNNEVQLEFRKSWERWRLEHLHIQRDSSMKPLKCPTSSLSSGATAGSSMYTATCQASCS

[2] = molecular target: T1, gastric inhibitory peptide receptor (GIPR) (Homo sapiens, UniProt P48546); assay: cAMP pharmacological functional assay in presence of casein, hGIPR; assay type: cell-based; settings: HEK293 cells expressing hGIPR, 0.1% Casein, geometric mean; read-out: hGIPR cAMP Rel EC50 nM (SEM, n)
T1 sequence (P48546 22-466): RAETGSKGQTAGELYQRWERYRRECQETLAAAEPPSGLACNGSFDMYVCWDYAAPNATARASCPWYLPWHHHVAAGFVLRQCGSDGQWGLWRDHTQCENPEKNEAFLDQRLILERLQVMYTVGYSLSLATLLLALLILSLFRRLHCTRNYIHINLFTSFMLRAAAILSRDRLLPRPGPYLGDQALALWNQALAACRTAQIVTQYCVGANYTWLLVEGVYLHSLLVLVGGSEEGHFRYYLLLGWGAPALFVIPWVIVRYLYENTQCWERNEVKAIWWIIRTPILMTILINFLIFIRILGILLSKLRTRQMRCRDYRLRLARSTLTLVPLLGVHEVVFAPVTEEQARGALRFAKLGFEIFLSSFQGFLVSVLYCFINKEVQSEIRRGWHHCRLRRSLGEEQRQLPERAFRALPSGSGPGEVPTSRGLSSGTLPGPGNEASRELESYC

[3] = molecular target: T2, human GLP-1R (Homo sapiens, UniProt P43220); assay: GLP-1R CHO cell β-arrestin recruitment assay; assay type: cell-based; design: host or cells: CHO-K1 PathHunter cells, assay-ready frozen; settings: for EC50: CHO-K1 cells, PathHunter β-arrestin-2 recruitment, 0.1% casein, read-out: hGLP1R B-Arrestin2 Rel EC50 uM (SEM, n); for hGLP1R B-Arrestin2 % Top: normalized to GLP-1 maximum control
T2 sequence (P43220 24-463): as the sequence (P43220 24-463) above
How it was run: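 PathHunter CHO-K1 cells with ProLink-tagged human GLP-1R and enzyme-acceptor-tagged β-arrestin-2 treated with serially diluted peptides in assay buffer containing 0.1% hydrolyzed casein, 90 min at 37 °C.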

[4] = molecular target: T2, human GLP-1R; assay: GLP-1R HEK293 cell membrane [35S]GTPγS binding assay; assay type: biochemical; design: expressed in transfected cells; host or cells: HEK293 cells expressing human GLP-1R; membranes; settings: HEK293 cell membranes expressing human GLP-1R, [35S]GTPγS binding; read-out: hGLP1R GTPgS Rel EC50 nM (SEM, n)
How it was run: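 Membranes from HEK293 cells expressing the receptor incubated with peptide and […] [35S]GTPγS in HEPES pH 7.4 buffer with NaCl, MgCl2, saponin and BSA, 30 min at room temperature. Gαs-bound label captured by anti-Gαs antibody/SPA beads and counted; EC50 from four-parameter logistic fit.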

| SMILES | EC50 [1] | EC50 [2] | EC50 [3] | hGLP1R B-Arrestin2 % Top [3] | EC50 [4] |
| --- | --- | --- | --- | --- | --- |
| CC[C@H](C)[C@H](NC(=O)[C@H](CC(C)C)NC(=O)[C@](C)(Cc1ccc(O)cc1)NC(=O)[C@H](CCC(=O)O)NC(=O)[C@@H](NC(=O)[C@H](Cc1ccccc1)NC(=O)[C@H](CCC(=O)O)NC(=O)C(C)(C)NC(=O)[C@H](CCC(N)=O)NC(=O)[C@H](C)NC(=O)[C@H](CCCCNC(=O)COCCOCCNC(=O)CC[C@H](NC(=O)CCCCCCCCCCCCCCCCCCC(=O)O)C(=O)O)NC(=O)[C@H](CCCCN)NC(=O)[C@H](CC(=O)O)NC(=O)[C@H](CC(C)C)NC(=O)[C@](C)(CC(C)C)NC(=O)[C@@H](NC(=O)[C@H](CO)NC(=O)[C@H](Cc1ccc(O)cc1)NC(=O)[C@H](CC(=O)O)NC(=O)[C@H](CO)NC(=O)[C@@H](NC(=O)[C@H](Cc1ccccc1)NC(=O)[C@@H](NC(=O)CNC(=O)[C@H](CCC(=O)O)NC(=O)C(C)(C)NC(=O)[C@H](N)Cc1ccc(O)cc1)[C@@H](C)O)[C@@H](C)O)[C@@H](C)CC)[C@@H](C)CC)C(=O)N[C@@H](C)C(=O)NCC(=O)NCC(=O)N1CCC[C@H]1C(=O)N[C@@H](CO)C(=O)N[C@@H](CO)C(=O)NCC(=O)N[C@@H](C)C(=O)N1CCC[C@H]1C(=O)N1CCC[C@H]1C(=O)N1CCC[C@H]1C(=O)N[C@@H](CO)C(N)=O [Example 372] (H-[dY][Aib]EGTFTSDYSI[αMeL]LDKK([AEEA-γGlu-C20 diacid])AQ[Aib]EFIE[αMeY]LIAGGPSSGAPPPS-NH2) | 0.365 nM | 0.0781 nM | 0.00981 µM | 32.9% | 0.379 nM |
| CC[C@H](C)[C@H](NC(=O)[C@H](CC(C)C)NC(=O)[C@](C)(Cc1ccc(O)cc1)NC(=O)[C@H](CCC(=O)O)NC(=O)[C@@H](NC(=O)[C@H](Cc1ccccc1)NC(=O)[C@H](C)NC(=O)C(C)(C)NC(=O)[C@H](CCC(N)=O)NC(=O)[C@H](C)NC(=O)[C@H](CCCCNC(=O)COCCOCCNC(=O)CC[C@H](NC(=O)CCCCCCCCCCCCCCCCCCC(=O)O)C(=O)O)NC(=O)[C@H](CCCCN)NC(=O)[C@H](CC(=O)O)NC(=O)[C@H](CC(C)C)NC(=O)[C@](C)(CC(C)C)NC(=O)[C@@H](NC(=O)[C@H](CO)NC(=O)[C@H](Cc1ccc(O)cc1)NC(=O)[C@H](CC(=O)O)NC(=O)[C@H](CO)NC(=O)[C@@H](NC(=O)[C@H](Cc1ccccc1)NC(=O)[C@@H](NC(=O)CNC(=O)[C@H](CCC(=O)O)NC(=O)C(C)(C)NC(=O)[C@H](N)Cc1ccc(O)cc1)[C@@H](C)O)[C@@H](C)O)[C@@H](C)CC)[C@@H](C)CC)C(=O)N[C@@H](C)C(=O)NCC(=O)NCC(=O)N1CCC[C@H]1C(=O)N[C@@H](CO)C(=O)N[C@@H](CO)C(=O)NCC(=O)N[C@@H](C)C(=O)N1CCC[C@H]1C(=O)N1CCC[C@H]1C(=O)N1CCC[C@H]1C(=O)N[C@@H](CO)C(N)=O [Example 373] (H-[dY][Aib]EGTFTSDYSI[αMeL]LDKK([AEEA-γGlu-C20 diacid])AQ[Aib]AFIE[αMeY]LIAGGPSSGAPPPS-NH2) | 0.436 nM | 0.185 nM | 0.00954 µM | 22.9% | 0.336 nM |
| CC[C@H](C)[C@H](NC(=O)[C@H](CC(C)C)NC(=O)[C@](C)(Cc1ccc(O)cc1)NC(=O)[C@H](CCC(=O)O)NC(=O)[C@@H](NC(=O)[C@H](Cc1ccccc1)NC(=O)[C@H](CCC(=O)O)NC(=O)C(C)(C)NC(=O)[C@H](CCC(N)=O)NC(=O)[C@H](C)NC(=O)[C@H](CCCCNC(=O)COCCOCCNC(=O)COCCOCCNC(=O)CC[C@H](NC(=O)CCCCCCCCCCCCCCCCC(=O)O)C(=O)O)NC(=O)[C@H](CCCCN)NC(=O)[C@H](CC(=O)O)NC(=O)[C@H](CC(C)C)NC(=O)[C@](C)(CC(C)C)NC(=O)[C@@H](NC(=O)[C@H](CO)NC(=O)[C@H](Cc1ccc(O)cc1)NC(=O)[C@H](CC(=O)O)NC(=O)[C@H](CO)NC(=O)[C@@H](NC(=O)[C@H](Cc1ccccc1)NC(=O)[C@@H](NC(=O)CNC(=O)[C@H](CCC(=O)O)NC(=O)C(C)(C)NC(=O)[C@H](N)Cc1ccc(O)cc1)[C@@H](C)O)[C@@H](C)O)[C@@H](C)CC)[C@@H](C)CC)C(=O)N[C@@H](C)C(=O)NCC(=O)NCC(=O)N1CCC[C@H]1C(=O)N[C@@H](CO)C(=O)N[C@@H](CO)C(=O)NCC(=O)N[C@@H](C)C(=O)N1CCC[C@H]1C(=O)N1CCC[C@H]1C(=O)N1CCC[C@H]1C(=O)N[C@@H](CO)C(N)=O [Example 374] (H-[dY][Aib]EGTFTSDYSI[αMeL]LDKK([AEEA-AEEA-γGlu-C18 diacid])AQ[Aib]EFIE[αMeY]LIAGGPSSGAPPPS-NH2) | 0.19 nM | 0.0468 nM | 0.0218 µM | 34.7% | 0.345 nM |
| CC[C@H](C)[C@H](NC(=O)[C@H](CC(C)C)NC(=O)[C@](C)(Cc1ccc(O)cc1)NC(=O)[C@H](CCC(=O)O)NC(=O)[C@@H](NC(=O)[C@H](Cc1ccccc1)NC(=O)[C@H](CCC(=O)O)NC(=O)C(C)(C)NC(=O)[C@H](CCC(N)=O)NC(=O)[C@H](C)NC(=O)[C@H](CCCCNC(=O)COCCOCCNC(=O)COCCOCCNC(=O)CC[C@H](NC(=O)CCCCCCCCCCCCCCCCC(=O)O)C(=O)O)NC(=O)[C@H](CCCN)NC(=O)[C@H](CC(=O)O)NC(=O)[C@H](CC(C)C)NC(=O)[C@](C)(CC(C)C)NC(=O)[C@@H](NC(=O)[C@H](CO)NC(=O)[C@H](Cc1ccc(O)cc1)NC(=O)[C@H](CC(=O)O)NC(=O)[C@H](CO)NC(=O)[C@@H](NC(=O)[C@H](Cc1ccccc1)NC(=O)[C@@H](NC(=O)CNC(=O)[C@H](CCC(=O)O)NC(=O)C(C)(C)NC(=O)[C@H](N)Cc1ccc(O)cc1)[C@@H](C)O)[C@@H](C)O)[C@@H](C)CC)[C@@H](C)CC)C(=O)N[C@@H](C)C(=O)NCC(=O)NCC(=O)N1CCC[C@H]1C(=O)N[C@@H](CO)C(=O)N[C@@H](CO)C(=O)NCC(=O)N[C@@H](C)C(=O)N1CCC[C@H]1C(=O)N1CCC[C@H]1C(=O)N1CCC[C@H]1C(=O)N[C@@H](CO)C(N)=O [Example 375] (H-[dY][Aib]EGTFTSDYSI[αMeL]LD[Orn]K([AEEA-AEEA-γGlu-C18 diacid])AQ[Aib]EFIE[αMeY]LIAGGPSSGAPPPS-NH2) | 0.152 nM | 0.0471 nM | 0.0114 µM | 24.2% | 0.419 nM |
| CC[C@H](C)[C@H](NC(=O)[C@H](CC(C)C)NC(=O)[C@](C)(Cc1ccc(O)cc1)NC(=O)[C@H](CCC(=O)O)NC(=O)[C@@H](NC(=O)[C@H](Cc1ccccc1)NC(=O)[C@H](C)NC(=O)C(C)(C)NC(=O)[C@H](CCC(N)=O)NC(=O)[C@H](C)NC(=O)[C@H](CCCCNC(=O)COCCOCCNC(=O)COCCOCCNC(=O)CC[C@H](NC(=O)CCCCCCCCCCCCCCCCC(=O)O)C(=O)O)NC(=O)[C@H](CCCCN)NC(=O)[C@H](CC(=O)O)NC(=O)[C@H](CC(C)C)NC(=O)[C@](C)(CC(C)C)NC(=O)[C@@H](NC(=O)[C@H](CO)NC(=O)[C@H](Cc1ccc(O)cc1)NC(=O)[C@H](CC(=O)O)NC(=O)[C@H](CO)NC(=O)[C@@H](NC(=O)[C@H](Cc1ccccc1)NC(=O)[C@@H](NC(=O)CNC(=O)[C@H](CCC(=O)O)NC(=O)C(C)(C)NC(=O)[C@H](N)Cc1ccc(O)cc1)[C@@H](C)O)[C@@H](C)O)[C@@H](C)CC)[C@@H](C)CC)C(=O)N[C@@H](C)C(=O)NCC(=O)NCC(=O)N1CCC[C@H]1C(=O)N[C@@H](CO)C(=O)N[C@@H](CO)C(=O)NCC(=O)N[C@@H](C)C(=O)N1CCC[C@H]1C(=O)N1CCC[C@H]1C(=O)N1CCC[C@H]1C(=O)N[C@@H](CO)C(N)=O [Example 376] (H-[dY][Aib]EGTFTSDYSI[αMeL]LDKK([AEEA-AEEA-γGlu-C18 diacid])AQ[Aib]AFIE[αMeY]LIAGGPSSGAPPPS-NH2) | 0.17 nM | 0.0723 nM | 0.0123 µM | 25.6% | 0.326 nM |
